Measurements: US4425435A, “Cholesterol oxidase and process for producing same” (Takara Shuzo Co., Ltd., priority 1980, dated 1984)

The compounds below were run on cholesterol oxidase (assay: Effect of inhibitors etc. on activity of the present enzymes). Settings: not given.
Type: biochemical, Basidiomycetes
Protocol: The enzymatic activity is determined by measurement of the hydrogen peroxide produced by the reaction of the enzyme solution on the substrate cholesterol. The method is based on the sequence of reactions as follows: Thus cholesterol is oxidized by cholesterol oxidase to cholest-5-en-3-one with the evolution of hydrogen peroxide, which couples with 4-aminoantipyrine and phenol in the presence of peroxidase to yield a quinoneimine dye with maximum absorption at 500 nm. To conduct this reaction there is used a reaction mixture, in a final volume of 3.0 ml, composed of 0.1 ml of the enzyme solution, 2 μmoles of cholesterol in 0.1 ml of ethanol, 250 μmoles of phosphate buffer, pH 7.0, 2.46 μmoles of 4-aminoantipyrine, 42 μmoles of phenol, and 24 units of peroxidase obtained from horseradish. The reaction is carried out at 37° C. for 10 minutes with shaking. One unit of cholesterol oxidase activity was defined as the amount of the enzyme which catalyzes the oxidation of 1 μmole of cholesterol per minute at 37° C.

Q: For [Mg+2] [Mg^2+], which “inhibition of the enzyme activity” value is on record?
A: The value was “do not inhibit”.

Q: With [Cu+2] [Cu^2+] as the compound, how does the “inhibition of the enzyme activity” value read?
A: Its value is “markedly inhibited”.

Q: With [Ba+2] [Ba^2+] as the compound, how does the “inhibition of the enzyme activity” value read?
A: Its value is “do not inhibit”.

Q: How did the “inhibition of the enzyme activity” value turn out when [Co+2] [Co^2+] was run?
A: The value was “do not inhibit”.

Q: With c1ccc(-c2ccccn2)nc1 [α,α'-dipyridyl] as the compound, how does the “inhibition of the enzyme activity” value read?
A: The value was “not inhibitory”.

Q: Which “inhibition of the enzyme activity” value does the source give for [Mn+2] [Mn^2+] here?
A: Its value is “do not inhibit”.

Q: How did the “inhibition of the enzyme activity” value turn out when [Ni+2] [Ni^2+] was run?
A: Its value is “do not inhibit”.

Q: For O=C(O)CN(CCN(CC(=O)O)CC(=O)O)CC(=O)O [EDTA], which “inhibition of the enzyme activity” value is on record?
A: The value was “not inhibitory”.

Q: Which “inhibition of the enzyme activity” value does the source give for Oc1cccc2cccnc12 [β-hydroxyquinoline] here?
A: Its value is “not inhibitory”.

Q: How did the “inhibition of the enzyme activity” value turn out when [Fe+2] [Fe^2+] was run?
A: Its value is “do not inhibit”.

Q: For [Hg+2] [Hg^2+], which “inhibition of the enzyme activity” value is on record?
A: The value was “markedly inhibited”.

Q: c1cnc2c(c1)ccc1cccnc12 [o-phenanthroline] was tested. Which “inhibition of the enzyme activity” value did it give?
A: Its value is “not inhibitory”.

Q: How did the “inhibition of the enzyme activity” value turn out when [Ca+2] [Ca^2+] was run?
A: Its value is “do not inhibit”.

Q: Which “prevention of inhibition caused by Cu^2+ and Hg^2+” value does the source give for N[C@@H](CCC(=O)N[C@@H](CS)C(=O)NCC(=O)O)C(=O)O [glutathione] here?
A: The value was “almost completely prevented”.

Same assay, conditions: 0.01% of Triton X-100

Q: Which “inhibition of the enzyme activity by detergent” value does the source give for Triton X-100 here?
A: Its value is “inhibit almost completely”.

These compounds were tested on cholesterol oxidase (assay: Substrate specificity: hydrogen peroxide decomposed with peroxidase, chromogen colour). Settings: hydrogen peroxide liberated from dehydrogenation of the 3β-position.
Type: biochemical, Basidiomycetes

Q: With CC(=O)[C@H]1CC[C@H]2[C@@H]3CC=C4C[C@@H](O)CC[C@]4(C)[C@H]3CC[C@]12C [pregnenolone] as the compound, how does the “enzyme acts on the sterol (substrate specificity)” value (from here on “enzyme acts on the sterol”) read?
A: Its value is “act on”.

Q: How did the “enzyme acts on the sterol” value turn out when CC(C)CCC[C@@H](C)[C@H]1CC[C@H]2[C@@H]3CC[C@H]4C[C@@H](O)CC[C@]4(C)[C@H]3CC[C@]12C [β-cholestanol] was run?
A: Its value is “act on”.

Q: C[C@]12CC[C@H](O)CC1=CC[C@@H]1[C@@H]2CC[C@]2(C)C(=O)CC[C@@H]12 [dehydroepiandrosterone] was tested. Which “enzyme acts on the sterol” value did it give?
A: The value was “act on”.

Q: With CC[C@H](/C=C/[C@@H](C)[C@H]1CC[C@H]2[C@@H]3CC=C4C[C@@H](O)CC[C@]4(C)[C@H]3CC[C@]12C)C(C)C [stigmasterol] as the compound, how does the “enzyme acts on the sterol” value read?
A: Its value is “act on”.

Q: CC[C@H](CC[C@@H](C)[C@H]1CC[C@H]2[C@@H]3CC=C4C[C@@H](O)CC[C@]4(C)[C@H]3CC[C@]12C)C(C)C [β-cytosterol] was tested. Which “enzyme acts on the sterol” value did it give?
A: Its value is “act on”.

Q: How did the “enzyme acts on the sterol” value turn out when CC(C)[C@H](C)CC[C@@H](C)[C@H]1CC[C@H]2[C@@H]3CC=C4C[C@@H](O)CC[C@]4(C)[C@H]3CC[C@]12C [campesterol] was run?
A: Its value is “act on”.

Q: How did the “enzyme acts on the sterol” value turn out when C[C@@H](O)[C@H]1CC[C@H]2[C@@H]3CC[C@H]4C[C@@H](O)CC[C@]4(C)[C@H]3CC[C@]12C [5α-pregnan-3β,20β-diol] was run?
A: The value was “act on”.

Q: How did the “enzyme acts on the sterol” value turn out when CC(C)[C@@H](C)/C=C/[C@@H](C)[C@H]1CC[C@H]2C3=CC=C4C[C@@H](O)CC[C@]4(C)[C@H]3CC[C@]12C [ergosterol] was run?
A: Its value is “act on”.

Q: CC(C)CCC[C@@H](C)[C@H]1CC[C@H]2[C@@H]3CC=C4C[C@@H](O)CC[C@]4(C)[C@H]3CC[C@]12C [cholesterol] was tested. Which “enzyme acts on the sterol” value did it give?
A: Its value is “act on”.
